Measurements: patent publication US12378216B2, “Heteroaryl(heterocyclyl)methanol compounds useful in the treatment of hyperglycaemia” (ATROGI AB, priority 2019, dated 2025)
Structures can show the parent of a compound that is named as a salt.

What was measured:
L6-myotubes = assay: Glucose uptake in differentiated L6-myotubes (3H-2-deoxy-glucose); assay type: cell-based; conditions: for Biological example 1 (glucose uptake, activity compared to that of isoproterenol): L6-myotubes, agonist final concentration 1×10^−5, relative to isoproterenol, Table 1; for Biological example 3: Table 2, the assay of Biological Example 1 (glucose uptake, L6-myotubes, agonist 1×10^−5, relative to isoproterenol)
Method: (§1) L6-myoblasts were grown in Dulbecco's Modified Eagle's Medium (DMEM) containing 4.5 g/I glucose supplemented with 10% fetal bovine serum, 2 mM L-Glutamine, 50 U/ml penicillin, 50 μg/ml streptomycin and 10 mM HEPES. Cells were plated at 1×10^5 cells per ml in 24-well plates. After reaching 90% confluence the cells were grown in medium containing 2% FBS for 7 days where upon cells differentiated into myotubes.
Differentiated L6-myotubes were serum-starved overnight in medium containing 0.5% fatty-acid free BSA and stimulated with agonist, final concentration 1×10^−5. After 1 h 40 min cells were washed with warm, glucose free medium or PBS and another portion of agonist was added to glucose free medium. After 20 min the cells were exposed to 50 nM ^3H-2-deoxy-glucose for another 10 min before washed in ice cold glucose free medium or PBS and lysed in 0.2 M NaOH for 1 h in 60° C.

[1] = tested on: Intracellular cAMP levels; assay: Measurement of intracellular cAMP levels in differentiated L6 cells (alpha screen cAMP kit); assay type: cell-based; conditions: for Biological example 2 (intracellular cAMP levels, activity compared to that of isoproterenol): differentiated cells, agonist final concentration 1×10-^5, 15 min, relative to isoproterenol, Table 1; for Biological example 4: Table 2, the assay of Biological Example 2 (intracellular cAMP, agonist 1×10-^5, relative to isoproterenol)
Method: as §1
Differentiated cells were serum-starved overnight and stimulated with agonist, final concentration 1×10-^5, for 15 min in stimulation buffer (HBSS supplemented with 1% BSA, 5 mM HEPES and 1 mM IBMX, pH 7.4) The medium was then aspirated and to end the reaction 100 μL of 95% EtOH was added to each well of a 24-well plate and cells were kept in −20° C. over night. The EtOH was let to evaporate and 500 μL of lysis buffer (1% BSA, 5 mM HEPES and 0.3% Tween-20, pH 7.4) was added to each well before put in −80° C. for 30 min and then kept in −20° C. Intracellular cAMP levels were detected using an alpha screen cAMP kit (6760635D from Perkin Elmer). The activity for each compound is compared to that of isoproterenol.

| Compound | Biological example 1 (glucose uptake, activity compared to that of isoproterenol) (L6-myotubes) | Biological example 2 (intracellular cAMP levels, activity compared to that of isoproterenol) [1] | Biological example 3 (L6-myotubes) | Biological example 4 [1] |
| --- | --- | --- | --- | --- |
| CCC[C@@H]1CC[C@H]([C@@H](O)c2cncc(F)c2)N1.O=C(O)/C=C\C(=O)O [Example 4, (S)-(5-Fluoropyridin-3-yl)((2R,5R)-5-propylpyrrolidin-2-yl)methanol maleate] | ++ (between 75 and 50%) | − (less than 25%) | – | – |
| CCC[C@H]1CCCC[C@@H]([C@H](O)c2cncc(F)c2)N1 [Example 15, (R)-(5-Fluoropyridin-3-yl)(S,7S)-7-propylazepan-2-yl)methanol dihydrochloride] | – | – | ++ (between 75 and 50%) | – |
| CCC[C@H]1CCC[C@H]([C@@H](O)c2cncc(F)c2)N1 [Example 2, (S)-(5-Fluoropyridin-3-yl)((2R,6S)-6-propylpiperidin-2-yl)methanol] | − (less than 25%) | − (less than 25%) | – | – |
| CCC[C@H]1CCC[C@H]([C@H](O)c2cncc(F)c2)N1 [Example 1, (R)-(5-Fluoropyridin-3-yl)((2R,6S)-6-propylpiperidin-2-yl)methanol dihydrochloride] | − (less than 25%) | − (less than 25%) | – | – |
| CCC[C@@H]1CC[C@H]([C@H](O)c2cncc(F)c2)N1.O=C(O)/C=C\C(=O)O [Example 3, (R)-(5-Fluoropyridin-3-yl)((2R,5R)-5-propylpyrrolidin-2-yl)methanol maleate] | +++ (more than 75% of that of isoproterenol) | − (less than 25%) | – | – |
| CCC[C@@H]1CCCC[C@H]([C@H](O)c2cncc(F)c2)N1 [Example 13, (R)-(5-Fluoropyridin-3-yl)((2R,7R)-7-propylazepan-2-yl)methanol] | – | – | − (less than 25%) | − (less than 25%) |
| CC1(C)C[C@@H]([C@@H](O)c2cncc(F)c2)N1 [Example 11, (S)-((S)-4,4-Dimethylazetidin-2-yl) (5-fluoropyridine-3-yl) methanol dihydrochloride] | – | – | + (between 50 and 25%) | − (less than 25%) |
| CC1(C)CC[C@H]([C@H](O)c2cncc(O)c2)N1 [Example 7] | ++ (between 75 and 50%) | − (less than 25%) | – | – |
| CC1(C)C[C@H]([C@H](O)c2cncc(F)c2)N1 [Example 9, (R)-((R)-4,4-Dimethylazetidin-2-yl)(5-fluoropyridine-3-yl)methanol dihydrochloride] | – | – | +++ (more than 75% of that of isoproterenol) | − (less than 25%) |
| CCC[C@H]1CCCC[C@@H]([C@@H](O)c2cncc(F)c2)N1 [Example 16] | – | – | + (between 50 and 25%) | – |
| CC1(C)CC[C@H]([C@H](O)c2cncc(F)c2)N1 [Example 5, (R)-((R)-5,5-Dimethylpyrrolidin-2-yl)(5-fluoropyridin-3-yl)methanol] | +++ (more than 75% of that of isoproterenol) | − (less than 25%) | – | – |
| CC1(C)CC[C@H]([C@@H](O)c2cncc(F)c2)N1 [Example 6, (S)-((R)-5,5-Dimethylpyrrolidin-2-yl) (5-fluoropyridin-3-yl)methanol] | − (less than 25%) | − (less than 25%) | – | – |
| CC1(C)C[C@@H]([C@H](O)c2cncc(F)c2)N1 [Example 10, (R)-((S)-4,4-Dimethylazetidin-2-yl)(5-fluoropyridine-3-yl)methanol dihydrochloride] | – | – | + (between 50 and 25%) | − (less than 25%) |
| CC1(C)C[C@H]([C@@H](O)c2cncc(F)c2)N1 [Example 12, (S)-((R)-4,4-Dimethylazetidin-2-yl)(5-fluoropyridin-3-yl)methanol dihydrochloride] | – | – | + (between 50 and 25%) | − (less than 25%) |
| CC1(C)CC[C@H]([C@@H](O)c2cncc(O)c2)N1 [Example 8, 5-((S)-((R)-5,5-dimethylpyrrolidin-2-yl)(hydroxy)methyl)pyridin-3-ol] | + (between 50 and 25%) | − (less than 25%) | – | – |
| CCC[C@@H]1CCCC[C@H]([C@@H](O)c2cncc(F)c2)N1 [Example 14, (S)-(5-Fluoropyridin-3-yl)((2R,7R)-7-propylazepan-2-yl)methanol] | – | – | − (less than 25%) | − (less than 25%) |
